Data published in ChEMBL document CHEMBL5584223, “Research progress of prodrugs for the treatment of cerebral ischemia” (Eur J Med Chem, 2024).
Converted amounts (≈) assume the structure as drawn.

Assays:
Rattus norvegicus [1] = assay: Protection against MCAO-induced Sprague-Dawley rat assessed as reduction in infarct volume in brain at 20 mg/kg, iv measured for 24 hrs relative to control; type: functional; parameters: scale not given: the % may be the effect or the level left
Platelet [2] = assay: Inhibition of ADP-induced platelet aggregation in New Zealand White rabbit; type: functional, cell-based; details: Oryctolagus cuniculus
[3] = Plasma concentration in human; type: ADME
[4] = Ratio of drug concentration in rat brain to plasma measured after 1 hrs by LC-MS/MS analysis; type: ADME; details: read-out: BPR
[5] = Half life in rat at 15 mg/kg, iv measured after 24 hrs by LC-MS/MS analysis; type: ADME, organism-based; details: in vivo
[6] = Ratio of drug concentration in rat brain to plasma measured after 0.5 hrs by LC-MS/MS analysis; type: ADME; details: read-out: BPR
[7] = Ratio of drug concentration in rat brain to plasma measured after 6 hrs by LC-MS/MS analysis; type: ADME; details: read-out: BPR
Platelet [8] = assay: Inhibition of AA-induced platelet aggregation in New Zealand White rabbit; type: functional, cell-based; details: Oryctolagus cuniculus
[9] = Lipophilicity, logP of compound; type: physicochemical; details: octanol/water
Rattus norvegicus [10] = assay: Protection against MCAO-induced rat assessed as reduction in infarct volume in brain at 40 mg/kg, iv measured after 24 hrs relative to control; type: functional; parameters: scale not given: the % may be the effect or the level left
Mus musculus = assay: Neuroprotective activity against hypoxia-ischemia brain injured mouse model assessed as reduction in infarct volume at 20 mg/kg, iv measured after 72 hrs by immuno-histochemistry based staining analysis relative to control; type: functional; parameters: scale not given: the % may be the effect or the level left
Platelet [11] = assay: Inhibition of ADP-induced platelet aggregation in New Zealand White rabbit at 1 uM relative to control; type: functional; details: Oryctolagus cuniculus
[12] = Solubility of compound in PBS at pH 7.4; type: physicochemical
SH-SY5Y = assay: Neuroprotective activity against MPP+-induced human SH-SY5Y cells assessed as reduction in cell death at 20 uM measured after 48 hrs by MTT assay; type: functional; parameters: scale not given: the % may be the effect or the level left
[13] = Cmax in Sprague-Dawley rat at 12.5 mg/kg, iv measured for 24 hrs by LC-MS/MS analysis; type: ADME, organism-based; details: in vivo
[14] = AUC (0 to infinity) in Sprague-Dawley rat at 12.5 mg/kg, iv incubated for 24 hrs by LC-MS/MS analysis; type: ADME, organism-based; details: in vivo
[15] = AUC (0 to t) in Sprague-Dawley rat at 12.5 mg/kg, iv incubated for 24 hrs by LC-MS/MS analysis; type: ADME, organism-based; details: in vivo

## Cc1cc(O)n(-c2ccc(F)cc2)n1
Rattus norvegicus [1]
  Activity: 32.46%

## Clc1ccccc1CN1CCc2sccc2C1 [TICLOPIDINE]
Platelet [2]
  IC50: 360 nM

## O=C(Nc1cc(C(F)(F)F)cc(C(F)(F)F)c1)c1cc(Cl)ccc1OP(=O)(O)O
[3]
  Cp: > 500 ng/mL

## CCCCC(OC(=O)CN(C)C)c1ccccc1C(=O)Oc1ccc(/C=C/C(=O)OC[C@@H]2OC(O)[C@@H](O)[C@H](O)[C@H]2O)cc1OC (stereo partly specified)
[4]
  Kp at 1 h: 1.27
[5]
  half-life: 44 min
[6]
  Kp at 0.5 h: 1.99
[7]
  Kp at 6 h: 4.8

## CCCC[C@H]1OC(=O)c2ccccc21
Platelet [8]
  IC50: 420 nM
Platelet [2]
  IC50: 700 nM
Rattus norvegicus [1]
  Activity: 78.21%

## O=C(O)[C@H]1O[C@@H](Oc2cc3oc(-c4ccc(O)cc4)cc(=O)c3c(O)c2O)[C@H](O)[C@@H](O)[C@@H]1O [SCUTELLARIN]
[9]
  logP: 0.015

## CCCC[C@H](OC(C)=O)c1ccccc1C(=O)O.N=C(N)NCCC[C@H](N)C(=O)O
Rattus norvegicus [10]
  Activity: 78.21%

## CC(=N)NCc1cccc(/C=[N+](\[O-])C(C)(C)C)c1
Mus musculus
  Activity: 30%

## CCCCC1OC(=O)c2ccccc21 (stereo not drawn) [RAC-3-N-BUTYLPHTHALIDE]
Platelet [11]
  inhibition at 1 µM: 51.4%

## CC(=O)Oc1ccccc1C(=O)O [ASPIRIN]
Platelet [11]
  inhibition at 1 µM: 73.7%

## CCCC[C@H](OC(=O)CN1CCC(O[N+](=O)[O-])CC1)c1ccccc1C(=O)OCCCCCCOc1ccc(-c2cc(=S)ss2)cc1
Platelet [8]
  IC50: 110 nM
Platelet [2]
  IC50: 100 nM

## COC(=O)[C@H]1O[C@@H](Oc2cc3oc(-c4ccc(OCCCCOC(=O)C5=CCc6cc(OC)ccc6N5C)cc4)cc(=O)c3c(O)c2O)[C@H](O)[C@H](O)[C@H]1O (single isomer, unassigned)
[12]
  solubility: 183 µg/mL (≈ 245 µM)
[9]
  logP: 1.76
SH-SY5Y
  Activity: 65%

## CCCC[C@H](OC(C)=O)c1ccccc1C(=O)O
Rattus norvegicus [1]
  Activity: 66.12%

## CCCCC(OC(=O)CN(CC)CC)c1ccccc1C(=O)Oc1ccc(/C=C/C(=O)OCCCCO[N+](=O)[O-])cc1OC (stereo unspecified)
Platelet [11]
  inhibition at 1 µM: 88.5%
Rattus norvegicus [10]
  Activity: 18.3%

## O=P([O-])([O-])Oc1ccc(-c2cc(=S)ss2)cc1.[Na+].[Na+]
[13]
  Cmax: 3330 ng/mL
[14]
  AUC: 4579 h/ng/mL
[15]
  AUCt: 3927.4 h/ng/mL
